Laboratory results published in US20210122730A1, “GLUCOCORTICOID RECEPTOR MODULATORS” (ORIC Pharmaceuticals, Inc., priority 2017, published 2021).

How the values were obtained:
[1] = target: T1, CYP2C8 (Homo sapiens, UniProt P10632); experiment: CYP Inhibition Assay (CYP2C8, human liver microsomes, paclitaxel substrate); type: in vitro ADME; settings: pH 7.4; pooled human liver microsomes 0.1 mg/mL, probe substrate paclitaxel
T1 construct: Pooled human microsomes were obtained from Sekisui XenoTech, KS; tissue Sekisui XenoTech, KS; host or cells: pooled human liver microsomes
T1 sequence (P10632 1-490): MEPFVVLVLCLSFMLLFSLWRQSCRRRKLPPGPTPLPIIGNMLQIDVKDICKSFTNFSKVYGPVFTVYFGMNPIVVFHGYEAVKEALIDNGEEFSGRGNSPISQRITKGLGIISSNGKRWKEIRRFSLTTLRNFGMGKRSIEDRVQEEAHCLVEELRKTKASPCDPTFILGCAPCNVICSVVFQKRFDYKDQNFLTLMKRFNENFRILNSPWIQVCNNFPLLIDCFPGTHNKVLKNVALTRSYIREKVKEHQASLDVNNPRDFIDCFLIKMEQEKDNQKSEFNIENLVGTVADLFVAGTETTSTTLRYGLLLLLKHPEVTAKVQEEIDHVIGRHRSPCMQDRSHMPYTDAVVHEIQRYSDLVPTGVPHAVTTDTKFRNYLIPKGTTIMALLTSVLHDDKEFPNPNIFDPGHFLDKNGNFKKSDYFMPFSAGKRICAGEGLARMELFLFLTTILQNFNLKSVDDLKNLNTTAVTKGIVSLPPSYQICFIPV
In short: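 CYP2C8 activity read as 6α-hydroxypaclitaxel formation by LC-MS/MS, with % inhibition versus vehicle control. Reactions ran 5 min at 37° C, pH 7.4 phosphate buffer, 0.1 mg/mL pooled human liver microsomes, 1 mM NADPH, duplicate wells.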

[2] = target: T2, PR (Homo sapiens, UniProt P06401); experiment: In Vitro PR Luciferase Reporter Assay (antagonist mode, CHO-K1-PR-MMTV-Luc reporter cells); type: cell-based; settings: antagonist assay with 20 nM Progesterone, 18-24 hours, read-out: PR antagonism IC50
T2 construct: expressed in transfected cells; host or cells: CHO-K1
T2 sequence (P06401 1-933): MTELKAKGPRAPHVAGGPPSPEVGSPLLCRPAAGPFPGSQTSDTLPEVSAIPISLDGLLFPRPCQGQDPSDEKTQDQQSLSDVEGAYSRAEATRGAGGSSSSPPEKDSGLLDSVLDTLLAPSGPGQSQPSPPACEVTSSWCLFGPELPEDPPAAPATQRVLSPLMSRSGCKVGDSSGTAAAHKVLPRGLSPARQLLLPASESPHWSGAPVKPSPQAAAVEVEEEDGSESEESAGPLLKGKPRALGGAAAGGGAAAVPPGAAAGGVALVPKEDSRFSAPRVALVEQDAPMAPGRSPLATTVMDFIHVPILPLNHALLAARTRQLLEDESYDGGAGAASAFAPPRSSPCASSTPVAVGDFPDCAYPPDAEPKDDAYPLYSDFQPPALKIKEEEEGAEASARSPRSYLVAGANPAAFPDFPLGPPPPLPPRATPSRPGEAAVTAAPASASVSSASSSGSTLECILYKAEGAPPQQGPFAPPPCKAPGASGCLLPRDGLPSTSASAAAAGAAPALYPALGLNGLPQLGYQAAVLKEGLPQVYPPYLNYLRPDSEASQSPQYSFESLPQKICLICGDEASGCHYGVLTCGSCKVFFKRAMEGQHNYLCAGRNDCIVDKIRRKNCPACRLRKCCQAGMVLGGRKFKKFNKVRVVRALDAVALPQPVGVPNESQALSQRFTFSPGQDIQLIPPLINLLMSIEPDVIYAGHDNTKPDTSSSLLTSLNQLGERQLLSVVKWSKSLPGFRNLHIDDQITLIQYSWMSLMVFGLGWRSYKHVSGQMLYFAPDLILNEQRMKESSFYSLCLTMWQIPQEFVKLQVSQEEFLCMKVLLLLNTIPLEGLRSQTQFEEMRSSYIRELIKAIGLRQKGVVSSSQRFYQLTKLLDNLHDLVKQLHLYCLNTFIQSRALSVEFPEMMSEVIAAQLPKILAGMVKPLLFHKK
Excerpt: Example C: In Vitro PR Luciferase Reporter Assay
Cell Line: CHO-KI-PR-MMTV-Luc reporter cells
Culture Media: DMEM (with phenol red)+1000FBS
Assay Media: DMEM (without phenol red)+1000CSS
Culture CHO-Kl-PR-MMTV-Luc reporter cells in 15 cm plates in Culture Media at conditions less than 90% confluence.
Prepared 200×DMSO 1:8 serial dilutions of control and test compounds in 96-well non-sterile V bottom plate in DMSO, 8 serial dilutions for each compound.
Prepared 5× Assay Media diluted compound serial dilutions in 96-well non-sterile V bottom plate: Add 97.5 μL/well of Assay Media into 96-well then add 2.5 μl of 200× concentration of compounds and mix well.
Added compounds: 5 μl of assay media diluted compounds were added to appropriate wells and followed a quick spin (1000 rpm, 10 sec) to bring media and cells to the bottom of plate. The plates were covered with SealMate film to avoid evaporation and placed in 37° C. incubator for approximately 18-24 hours.
Read plates: Equilibrated appropriate amount of Promega One-Glo luciferase reagent to room temperature. Removed the plates from incubator and added 25 μL of One-Glo luciferase reagent/well by multiple channel pipette and read the plates with Tecan F500 luminometer within 3 minutes.
The ability of exemplary compounds disclosed herein to inhibit PR activity was quantified and the respective IC50 value was determined. Table 4 provides the cellular IC50 values of exemplary compounds disclosed herein.

Row | inhibition at 5 min [1] | IC50 [2] | SMILES
1 | ≤ 25% | > 5 µM | Cn1cc(S(=O)(=O)C[C@H]2CCC3=Cc4c(cnn4-c4ccc(F)cc4)C[C@]3(C(=O)c3cc(C(F)(F)F)ccn3)C2)cn1 (single isomer, unassigned) [Example 118]
2 | 25 to 50% | > 5 µM | CN([C@H]1CCC2=Cc3c(cnn3-c3ccc(F)cc3)C[C@]2(C(=O)c2cc(C(F)(F)F)ccn2)C1)S(=O)(=O)c1ccc(F)cc1 [Example 5, 4-Fluoro-N-((4aS,6S)-1-(4-fluorophenyl)-4a-(4-(trifluoromethyl)picolinoyl)-4,4a,5,6,7,8-hexahydro-1H-benzo[f]indazol-6-yl)-N-methylbenzenesulfonamide]
3 | 25 to 50% | > 5 µM | Cn1cc(S(=O)(=O)N(C2CC2)[C@H]2CCC3=Cc4c(cnn4-c4ccc(F)cc4)C[C@]3(C(=O)c3cc(C(F)(F)F)ccn3)C2)cn1 [Example 88, N-cyclopropyl-N-((4aS,6S)-1-(4-fluorophenyl)-4a-(4-(trifluoromethyl)picolinoyl)-4,4a,5,6,7,8-hexahydro-1H-benzo[f]indazol-6-yl)-1-methyl-1H-pyrazole-4-sulfonamide]
4 | 25 to 50% | 3.47 µM | CN([C@H]1CCC2=Cc3c(cnn3-c3ccc(F)cc3)C[C@]2(C(=O)c2cc(C(F)(F)F)ccn2)C1)S(=O)(=O)c1ccn(C)n1 [Example 98, N-((4aS,6S)-1-(4-fluorophenyl)-4a-(4-(trifluoromethyl)picolinoyl)-4,4a,5,6,7,8-hexahydro-1H-benzo[f]indazol-6-yl)-N,1-dimethyl-1H-pyrazole-3-sulfonamide]
5 | 25 to 50% | > 5 µM | Cn1cc(S(=O)(=O)N(CC2CC2)[C@H]2CCC3=Cc4c(cnn4-c4ccc(F)cc4)C[C@]3(C(=O)c3cc(C(F)(F)F)ccn3)C2)cn1 [Example 103, N-(cyclopropylmethyl)-N-((4aS,6S)-1-(4-fluorophenyl)-4a-(4-(trifluoromethyl)picolinoyl)-4,4a,5,6,7,8-hexahydro-1H-benzo[f]indazol-6-yl)-1-methyl-1H-pyrazole-4-sulfonamide]
6 | 25 to 50% | > 5 µM | Cn1ccc(S(=O)(=O)N(CC(F)(F)F)[C@H]2CCC3=Cc4c(cnn4-c4ccc(F)cc4)C[C@]3(C(=O)c3cc(C(F)(F)F)ccn3)C2)n1 [Example 111, N-((4aS,6S)-1-(4-Fluorophenyl)-4a-(4-(trifluoromethyl)picolinoyl)-4,4a,5,6,7,8-hexahydro-1H-benzo[f]indazol-6-yl)-1-methyl-N-(2,2,2-trifluoroethyl)-1H-pyrazole-3-sulfonamide]
7 | ≤ 25% | > 5 µM | Cn1ccc(S(=O)(=O)[C@H]2CCC3=Cc4c(cnn4-c4ccc(F)cc4)C[C@]3(C(=O)c3cc(C(F)(F)F)ccn3)C2)n1 [Example 113, ((4aS,6S)-1-(4-Fluorophenyl)-6-((1-methyl-1H-pyrazol-3-yl)sulfonyl)-1,4,5,6,7,8-hexahydro-4aH-benzo[f]indazol-4a-yl)(4-(trifluoromethyl)pyridin-2-yl)methanone]
8 | 50 to 75% | > 5 µM | Cn1ccc(S(=O)(=O)N(C2CC2)[C@H]2CCC3=Cc4c(cnn4-c4ccc(F)cc4)C[C@]3(C(=O)c3cc(C(F)(F)F)ccn3)C2)n1 [Example 138, N-cyclopropyl-N-((4aS,6S)-1-(4-fluorophenyl)-4a-(4-(trifluoromethyl)picolinoyl)-4,4a,5,6,7,8-hexahydro-1H-benzo[f]indazol-6-yl)-1-methyl-1H-pyrazole-3-sulfonamide]
9 | ≤ 25% | > 5 µM | O=C(c1ncc(C(F)(F)F)s1)[C@]12Cc3cnn(-c4ccc(F)cc4)c3C=C1CC[C@H](N(C1CC1)S(=O)(=O)c1ccc(F)cc1)C2 [Example 177, N-cyclopropyl-4-fluoro-N-((4aS,6S)-1-(4-fluorophenyl)-4a-(5-(trifluoromethyl)thiazole-2-carbonyl)-4,4a,5,6,7,8-hexahydro-1H-benzo[f]indazol-6-yl)benzenesulfonamide]
10 | 25 to 50% | > 5 µM | Cn1ccc(S(=O)(=O)N(CC2CC2)[C@H]2CCC3=Cc4c(cnn4-c4ccc(F)cc4)C[C@]3(C(=O)c3ncc(C(F)(F)F)s3)C2)n1 [Example 179, N-(cyclopropylmethyl)-N-((4aS,6S)-1-(4-fluorophenyl)-4a-(5-(trifluoromethyl)thiazole-2-carbonyl)-4,4a,5,6,7,8-hexahydro-1H-benzo[f]indazol-6-yl)-1-methyl-1H-pyrazole-3-sulfonamide]
11 | 50 to 75% | > 5 µM | CC(C)N([C@H]1CCC2=Cc3c(cnn3-c3ccc(F)cc3)C[C@]2(C(=O)c2cc(C(F)(F)F)ccn2)C1)S(=O)(=O)c1ccn(C)n1 [Example 186, N-((4aS,6S)-1-(4-fluorophenyl)-4a-(4-(trifluoromethyl)picolinoyl)-4,4a,5,6,7,8-hexahydro-1H-benzo[f]indazol-6-yl)-N-isopropyl-1-methyl-1H-pyrazole-3-sulfonamide]
12 | 25 to 50% | > 5 µM | CC(C)N(C(=O)c1cnn(C)c1)[C@H]1CCC2=Cc3c(cnn3-c3ccc(F)cc3)C[C@]2(C(=O)c2ncc(C(F)(F)F)s2)C1 [Example 211, N-((4aS,6S)-1-(4-fluorophenyl)-4a-(5-(trifluoromethyl)thiazole-2-carbonyl)-4,4a,5,6,7,8-hexahydro-1H-benzo[f]indazol-6-yl)-N-isopropyl-1-methyl-1H-pyrazole-4-carboxamide]
13 | 25 to 50% | > 5 µM | Cn1ccc(S(=O)(=O)N(C2CC(F)(F)C2)[C@H]2CCC3=Cc4c(cnn4-c4ccc(F)cc4)C[C@]3(C(=O)c3cc(C(F)(F)F)ccn3)C2)n1 [Example 227, N-(3,3-difluorocyclobutyl)-N-((4aS,6S)-1-(4-fluorophenyl)-4a-(4-(trifluoromethyl)picolinoyl)-4,4a,5,6,7,8-hexahydro-1H-benzo[f]indazol-6-yl)-1-methyl-1H-pyrazole-3-sulfonamide]
14 | 25 to 50% | > 5 µM | O=C(c1cc(Cl)ccn1)[C@]12Cc3cnn(-c4ccc(F)cc4)c3C=C1CC[C@H](N(C1CC1)S(=O)(=O)c1ccc(F)cc1)C2 [Example 232, N-((4aS,6S)-4a-(4-chloropicolinoyl)-1-(4-fluorophenyl)-4,4a,5,6,7,8-hexahydro-1H-benzo[f]indazol-6-yl)-N-cyclopropyl-4-fluorobenzenesulfonamide]
15 | ≤ 25% | > 5 µM | Cn1cc(S(=O)(=O)N(CC(C)(C)O)[C@H]2CCC3=Cc4c(cnn4-c4ccc(F)cc4)C[C@]3(C(=O)c3cc(F)ccn3)C2)cn1 [Example 248, N-((4aS,6S)-1-(4-fluorophenyl)-4a-(4-fluoropicolinoyl)-4,4a,5,6,7,8-hexahydro-1H-benzo[f]indazol-6-yl)-N-(2-hydroxy-2-methylpropyl)-1-methyl-1H-pyrazole-4-sulfonamide]
